What all share (experiment): NCI60 one-dose screen
Type in all cases: cell-based

The test system of one assay is HOP-62. Conditions: Homo sapiens; HOP-62, 10 μM; read-out: Growth percent. As for the experimental part:
(§1) The screening results are presented in the Supplementary Materials (Table S1), where the cytotoxicity was determined for the 10 µM concentration. […] The negative numbers indicate significant decreases in the cell number. […] Compared to the reference chrysin (2), all phosphonium hybrids (3a–h) had significant antiproliferative activities. […] At the same time, it should be noted that more than 60% average reduction was also obtained in the case of the other examined conjugates (3a–h).
(§2) A detailed description of the NCI screening procedures, including the one-dose and five-dose tests, can be found in the Supplementary Materials, on the website of NCI [39], and in our previous work.
(§3) A detailed description of the NCI screening procedures can also be found on the website of NCI [39], and in our […]
(§4) All candidates were examined at first at a single high dose (10 μM) in the full NCI60 cell panel. The value reported for the one-dose test is growth relative to the no-drug control and relative to the time zero number of cells. This made possible the disclosure of both growth inhibition (numbers between 0 and 100) and lethality (numbers less than 0). For example, a value of 100 means no growth inhibition. A value of 20 would mean 80% growth inhibition. A value of 0 means no net growth over the course of the analysis. A value of −20 would mean 20% lethality. A value of −100 means all cells are dead. […]
(§5) concentration levels. The human tumor cell lines of the cancer screening panel were grown in RPMI 1640 medium containing 5% fetal bovine serum and 2 mM l-glutamine. Characteristically, cells were injected in 96-well microtiter plates in 0.1 mL at plating densities ranging from 5000 to 40,000 cells/well, depending on the doubling time of individual cell lines. After cell inoculation, the microtiter plates were incubated at 37 °C, 5% carbon dioxide, 95% air, and 100% relative humidity for 24 hours before the addition of tested compounds. After 24 hours, 2 plates of each cell line were fixed in situ with Cl3COOH (TCA), to represent a measurement of the cell population for each cell line at the time of drug addition (tz). Tested compounds were solubilized in DMSO at 400-fold the desired final maximum test concentration and stored frozen before application. In the course of the drug addition, an aliquot of frozen concentrate was thawed and diluted to twice the desired final maximum test concentration with a complete medium containing 50 μg mL−1 gentamicin. Additional four, 10-fold or ½ log serial dilutions were produced to furnish a total of five drug concentrations plus control. Aliquots of 0.1 mL of these different drug dilutions were added to the appropriate microtiter wells already containing 0.1 mL of medium, resulting in the required final drug concentrations.
(§6) Following drug addition, the plates were incubated at 37 °C, 5% carbon dioxide, 95% air, and 100% relative humidity for an additional 48 hours. For adherent cells, the test was finished by the addition of cold Cl3COOH. Cells were fixed in situ by the addition of 50 μL of cold 50% (w/v) Cl3COOH, and incubated at 4 °C for 1 hour. The supernatant was discarded, and the plates were washed with H2O (5×) and dried in air. Sulforhodamine B (SRB) solution (0.1 mL) at 0.4% (w/v) in 1% CH3COOH was added to each well, and plates were incubated at RT for 10 min. After staining, the unbound dye was removed by washing five times with 1% CH3COOH, and the plates were dried in the air. The bound stain is afterward solubilized with a 10 mM trizma base, and the absorbance is read on an automated plate reader at λ = 515 nm. Utilizing the seven absorbance measurements [time zero (tz), control growth (c), and test growth in the presence of the drug at the five concentration levels (ti)], the percentage growth was determined at each of the drug concentration levels. Growth inhibition (%) was calculated as:
(§7) [(ti − tz)/(c − tz)] × 100, for concentrations where ti ≥ tz (1) […]

A further assay has as its system OVCAR-3. Particulars: Homo sapiens; OVCAR-3, 10 μM; read-out: Growth percent. As for the experimental part:
as §1, §2, §3, §4, §5, §6, §7

In a further assay the test system is CCRF-CEM. Particulars: Homo sapiens, read-out: Growth percent. As for the experimental part: as §1, §2, §3, §4, §5, §6, §7
A further assay relates to NCI-H522. Particulars: Homo sapiens; NCI-H522, 10 μM; read-out: Growth percent. As for the experimental part:
as §1, §2, §3, §4, §5, §6, §7

For a further assay, the system named is NCI-H226. Particulars: Homo sapiens; NCI-H226, 10 μM; read-out: Growth percent. As for the experimental part: as §1, §2, §3, §4, §5, §6, §7
The subject of another assay is RPMI-8226. Conditions: Homo sapiens; RPMI-8226, 10 μM; read-out: Growth percent. As for the experimental part:
as §1, §2, §3, §4, §5, §6, §7

For the next assay, the system named is NCI-H460. Particulars: Homo sapiens; NCI-H460, 10 μM; read-out: Growth percent. As for the experimental part:
as §1, §2, §3, §4, §5, §6, §7

The subject of another assay is A549/ATCC. Conditions: Homo sapiens, read-out: Growth percent. As for the experimental part: as §1, §2, §3, §4, §5, §6, §7
In the next assay the test system is ACHN. Particulars: Homo sapiens, read-out: Growth percent. As for the experimental part: as §1, §2, §3, §4, §5, §6, §7
For a further assay, the system named is SK-MEL-2. Conditions: Homo sapiens; SK-MEL-2, 10 μM; read-out: Growth percent. As for the experimental part:
as §1, §2, §3, §4, §5, §6, §7

A further assay has as its system SF-268. Conditions: Homo sapiens; SF-268, 10 μM; read-out: Growth percent. As for the experimental part:
as §1, §2, §3, §4, §5, §6, §7

Another assay deals with OVCAR-8. Conditions: Homo sapiens; OVCAR-8, 10 μM; read-out: Growth percent. As for the experimental part:
as §1, §2, §3, §4, §5, §6, §7

The next assay has as its system COLO 205. Particulars: Homo sapiens; COLO 205, 10 μM; read-out: Growth percent. As for the experimental part: as §1, §2, §3, §4, §5, §6, §7
The test system of a further assay is BT-549. Particulars: Homo sapiens; BT-549, 10 μM; read-out: Growth percent. As for the experimental part:
as §1, §2, §3, §4, §5, §6, §7

A further assay has as its system HCC-2998. Conditions: Homo sapiens; HCC-2998, 10 μM; read-out: Growth percent. As for the experimental part: as §1, §2, §3, §4, §5, §6, §7
The subject of the next assay is LOX IMVI. Particulars: Homo sapiens, read-out: Growth percent. As for the experimental part:
as §1, §2, §3, §4, §5, §6, §7

The next assay deals with NCI-H322M. Conditions: Homo sapiens, read-out: Growth percent. As for the experimental part:
as §1, §2, §3, §4, §5, §6, §7

A further assay deals with K-562. Particulars: Homo sapiens, K562; K-562, 10 μM; read-out: Growth percent. As for the experimental part: as §1, §2, §3, §4, §5, §6, §7
Another assay concerns SNB-75. Particulars: Homo sapiens; SNB-75, 10 μM; read-out: Growth percent. As for the experimental part:
as §1, §2, §3, §4, §5, §6, §7

Another assay relates to MOLT-4. Conditions: Homo sapiens; MOLT-4, 10 μM; read-out: Growth percent. As for the experimental part: as §1, §2, §3, §4, §5, §6, §7
In another assay the test system is HCT-15. Particulars: Homo sapiens; HCT-15, 10 μM; read-out: Growth percent. As for the experimental part:
as §1, §2, §3, §4, §5, §6, §7

From publication PMC12652692, “Synthesis and In Vitro Anticancer Evaluation of Novel Phosphonium Derivatives of Chrysin” (International Journal of Molecular Sciences, 2025) come the findings set out here.

On to `COc1c(C)cc([P+](CCCCOc2cc(O)c3c(=O)cc(-c4ccccc4)oc3c2)(c2cc(C)c(OC)c(C)c2)c2cc(C)c(OC)c(C)c2)cc1C` [3f], for which the activity at 10 µM is -25.2% with HOP-62; -69.8% with OVCAR-3; -32.6% in the assay with CCRF-CEM; -77.3% in the assay with NCI-H522; -58.5% in the assay with NCI-H226; -42.9% in the assay on RPMI-8226. The activity at 10 µM in the assay on NCI-H460 is -58.6%; in the assay with A549/ATCC, -66.1%; with ACHN, -88.4%; in the assay with SK-MEL-2, -77.6%; in the assay on SF-268, -66.5%; with OVCAR-8, -68.1%. The activity at 10 µM with COLO 205 was -62.2%; in the assay with BT-549, -53.4%; with HCC-2998 it was -73.5%; with LOX IMVI it was -68.7%; in the assay on NCI-H322M, -62.2%; in the assay with K-562 it was 6.85%. Moreover, the activity at 10 µM is -71% with SNB-75, -42.5% in the assay with MOLT-4 and -58.9% with HCT-15.
`Cc1ccccc1[P+](CCCCOc1cc(O)c2c(=O)cc(-c3ccccc3)oc2c1)(c1ccccc1C)c1ccccc1C` [3g]: the activity at 10 µM was -98.3% in the assay on HOP-62; -99.1% in the assay with OVCAR-3; -96.5% with CCRF-CEM; -98.5% in the assay on NCI-H522; -99.4% in the assay with NCI-H226; -98.5% with RPMI-8226. The activity at 10 µM is -91.5% in the assay with NCI-H460; -94.1% with A549/ATCC; -97% in the assay with ACHN; -98.5% in the assay with SK-MEL-2; -97.9% with SF-268; -95.9% in the assay with OVCAR-8. The activity at 10 µM in the assay with COLO 205 was -97%; in the assay with BT-549, -98.1%; in the assay on HCC-2998, -98.2%; in the assay on LOX IMVI it was -97.5%; in the assay on NCI-H322M it was -98.2%; in the assay on K-562, -97.5%. For the same compound, the activity at 10 µM with SNB-75 is -99%; in the assay on MOLT-4, -98.6%; in the assay on HCT-15, -94.7%.
Consider `O=c1cc(-c2ccccc2)oc2cc(OCCCC[P+](c3ccccc3)(c3ccccc3)c3ccccn3)cc(O)c12` [3h], for which the activity at 10 µM in the assay on HOP-62 was -57%; with OVCAR-3, -93.7%; in the assay on CCRF-CEM, -20.7%; in the assay with NCI-H522 it was -72.3%; with NCI-H226 it was -50.4%; with RPMI-8226, -35.3%. The activity at 10 µM in the assay on NCI-H460 is -84.2%; with A549/ATCC, -43.5%; with ACHN, -98%; in the assay with SK-MEL-2 it was -95.4%; with SF-268, -67.6%; in the assay on OVCAR-8, -91.6%. Also, the activity at 10 µM with COLO 205 was -75.9%; in the assay on BT-549, -69.7%; with HCC-2998 it was -88.5%; in the assay on LOX IMVI, -84.1%; in the assay on NCI-H322M it was -94.5%; in the assay with K-562, -51.3%. For the same compound, the activity at 10 µM in the assay with SNB-75 is -47.3%; with MOLT-4, 21.1%; in the assay on HCT-15, -88%.
For the compound `O=c1cc(-c2ccccc2)oc2cc(O)cc(O)c12` [compound 2, 5,7-dihydroxyflavone, reference compound], the activity at 10 µM in the assay on HOP-62 was determined as 113%; in the assay with OVCAR-3, 97.6%; in the assay on CCRF-CEM it was 102%; in the assay on NCI-H522, 89%; in the assay with NCI-H226 it was 86.8%; in the assay on RPMI-8226, 101%. For the same compound, the activity at 10 µM with NCI-H460 came to 98.3%; in the assay on A549/ATCC it was 98.5%; in the assay with ACHN, 85%; with SK-MEL-2 it was 110%; in the assay on SF-268 it was 102%; with OVCAR-8 it was 95.2%. For the same compound, the activity at 10 µM in the assay with COLO 205 amounted to 105%; with BT-549 it was 91%; in the assay on HCC-2998, 103%; in the assay with LOX IMVI, 85.1%; in the assay on NCI-H322M, 98.3%; with K-562, 96.8%. In addition, the activity at 10 µM in the assay with SNB-75 stood at 89%; in the assay with MOLT-4, 106%; with HCT-15 it was 81%.
